Laboratory results published in patent publication US9809532B2, “Uses of histone acetyltransferase activators” (THE TRUSTEES OF COLUMBIA UNIVERSITY IN THE CITY OF NEW YORK, priority 2011, dated 2017).

Legend:
[1] = precipitated as soon as put in H2O; cited from earlier work
Sirtuin 2 = biological target: T1, Sirtuin 2 (Homo sapiens, UniProt Q8IXJ6); test: Sirtuin 2 activity assay (fluorescence); details: Sirtuin 2
T1 sequence (Q8IXJ6 1-389): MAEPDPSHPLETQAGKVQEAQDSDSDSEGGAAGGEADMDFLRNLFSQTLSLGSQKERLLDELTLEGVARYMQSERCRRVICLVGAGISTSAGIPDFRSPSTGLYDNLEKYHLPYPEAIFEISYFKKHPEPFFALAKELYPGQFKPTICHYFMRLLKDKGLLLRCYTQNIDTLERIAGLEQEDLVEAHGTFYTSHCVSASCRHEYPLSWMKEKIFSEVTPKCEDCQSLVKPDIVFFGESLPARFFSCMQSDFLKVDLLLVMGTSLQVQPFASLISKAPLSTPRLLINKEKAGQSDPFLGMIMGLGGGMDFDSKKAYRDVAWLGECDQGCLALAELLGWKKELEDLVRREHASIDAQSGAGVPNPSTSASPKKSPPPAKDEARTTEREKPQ

Sirtuin 1 = biological target: T2, Sirtuin 1 (Homo sapiens, UniProt Q96EB6); test: Sirtuin 1 activity assay (fluorescence)
T2 sequence (Q96EB6 1-747): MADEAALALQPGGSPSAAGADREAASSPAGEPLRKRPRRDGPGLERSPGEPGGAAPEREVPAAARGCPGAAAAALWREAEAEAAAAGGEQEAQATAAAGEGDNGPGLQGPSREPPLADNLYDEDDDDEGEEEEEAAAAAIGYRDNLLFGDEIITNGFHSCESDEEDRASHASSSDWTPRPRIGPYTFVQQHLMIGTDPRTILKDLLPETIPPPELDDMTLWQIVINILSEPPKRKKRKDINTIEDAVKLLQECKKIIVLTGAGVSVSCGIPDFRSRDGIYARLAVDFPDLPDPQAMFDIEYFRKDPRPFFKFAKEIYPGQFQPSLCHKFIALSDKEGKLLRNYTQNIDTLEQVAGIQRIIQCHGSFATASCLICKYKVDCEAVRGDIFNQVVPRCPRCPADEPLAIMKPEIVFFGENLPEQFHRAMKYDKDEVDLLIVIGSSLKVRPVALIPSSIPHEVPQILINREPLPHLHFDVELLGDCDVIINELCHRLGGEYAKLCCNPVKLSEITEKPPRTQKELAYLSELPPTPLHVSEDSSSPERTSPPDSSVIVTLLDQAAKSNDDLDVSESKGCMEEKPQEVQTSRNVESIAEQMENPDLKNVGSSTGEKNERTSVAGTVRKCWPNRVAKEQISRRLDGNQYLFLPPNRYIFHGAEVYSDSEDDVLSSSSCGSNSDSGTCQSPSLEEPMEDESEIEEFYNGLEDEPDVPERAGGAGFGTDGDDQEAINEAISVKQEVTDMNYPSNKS

Row | IC50 (Sirtuin 2) [µM] | IC50 (Sirtuin 1) [µM] | SMILES | solubility in water [1]
1 |  |  | CCOc1ccccc1C(=O)Nc1ccc(Cl)c(C(F)(F)F)c1 [N-(4-chloro-3-trifluoromethyl-phenyl)-2-ethoxy-benzamide] | very poorly solubile in water
2 | > 10 | > 10 | O=C(CCCCCCC(=O)Nc1ccccc1)NO [SAHA, reference compound] | 
